Test results as given in ChEMBL document CHEMBL5236605, “Design and synthesis of dual cathepsin L and S inhibitors and antimetastatic activity evaluation in pancreatic cancer cells” (Bioorg Med Chem Lett, 2023).
The source made the active and inactive calls. No cut-off for these calls is given here.

What was measured:
Cathepsin K = target: T1, Cathepsin K (Homo sapiens, UniProt P43235); assay: Inhibition of human cathepsin K
T1 sequence (P43235 whole entry): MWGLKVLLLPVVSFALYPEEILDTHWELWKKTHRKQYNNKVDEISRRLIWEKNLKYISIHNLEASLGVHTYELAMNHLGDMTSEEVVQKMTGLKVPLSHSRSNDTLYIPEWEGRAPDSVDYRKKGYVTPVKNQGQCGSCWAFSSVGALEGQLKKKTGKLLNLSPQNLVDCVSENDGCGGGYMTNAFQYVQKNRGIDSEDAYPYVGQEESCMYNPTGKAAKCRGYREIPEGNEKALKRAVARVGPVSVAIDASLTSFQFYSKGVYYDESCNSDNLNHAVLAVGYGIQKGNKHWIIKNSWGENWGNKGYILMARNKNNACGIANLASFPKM

Procathepsin L [1] = target: T2, Procathepsin L (Homo sapiens, UniProt P07711); assay: Inhibition of human cathepsin L
Target sequence in this assay (P07711 whole entry): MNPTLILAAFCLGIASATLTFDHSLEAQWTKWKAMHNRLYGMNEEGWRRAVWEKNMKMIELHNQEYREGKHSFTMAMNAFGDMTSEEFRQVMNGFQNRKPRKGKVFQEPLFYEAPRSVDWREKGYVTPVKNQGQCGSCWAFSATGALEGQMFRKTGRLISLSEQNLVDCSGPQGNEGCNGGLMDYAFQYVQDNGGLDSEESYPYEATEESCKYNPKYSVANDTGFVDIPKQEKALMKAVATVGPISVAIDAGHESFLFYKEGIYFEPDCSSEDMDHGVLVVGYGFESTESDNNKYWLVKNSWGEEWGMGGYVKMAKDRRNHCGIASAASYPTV

Cathepsin B = Cathepsin B (Homo sapiens, UniProt P07858); assay: Inhibition of human cathepsin B
Cathepsin S [2] = target: T3, Cathepsin S (Homo sapiens, UniProt P25774); assay: Inhibition of human cathepsin S
Target sequence in this assay (P25774 whole entry): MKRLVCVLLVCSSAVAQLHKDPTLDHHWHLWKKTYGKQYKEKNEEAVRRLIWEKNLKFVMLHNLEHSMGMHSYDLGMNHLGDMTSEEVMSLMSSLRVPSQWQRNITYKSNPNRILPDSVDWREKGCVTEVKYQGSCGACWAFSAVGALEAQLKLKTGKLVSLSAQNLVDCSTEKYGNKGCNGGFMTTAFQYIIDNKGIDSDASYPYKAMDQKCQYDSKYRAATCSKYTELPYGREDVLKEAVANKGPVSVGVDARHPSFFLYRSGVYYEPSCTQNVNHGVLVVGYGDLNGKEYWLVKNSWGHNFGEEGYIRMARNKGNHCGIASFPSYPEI

Cathepsin S [3] = target: T3, Cathepsin S; assay: Inhibition of cathepsin S activity in human PANC-1 cells at 6.25 to 25 uM incubated for 48 hrs by fluorescence-based assay; format: cell-based; details: dose 6.25-25 µM
Target sequence in this assay (P25774 115-331 limits assumed): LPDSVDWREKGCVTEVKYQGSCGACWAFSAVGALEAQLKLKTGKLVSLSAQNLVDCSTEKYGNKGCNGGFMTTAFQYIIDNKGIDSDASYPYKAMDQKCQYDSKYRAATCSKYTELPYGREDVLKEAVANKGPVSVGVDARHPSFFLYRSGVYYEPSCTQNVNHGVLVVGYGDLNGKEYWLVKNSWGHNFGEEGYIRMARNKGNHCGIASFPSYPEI

Procathepsin L [4] = target: T2, Procathepsin L; assay: Inhibition of cathepsin L activity in human PANC-1 cells at 6.25 to 25 uM incubated for 48 hrs by fluorescence-based assay; format: cell-based; details: dose 6.25-25 µM
Target sequence in this assay (P07711 114-333 limits assumed): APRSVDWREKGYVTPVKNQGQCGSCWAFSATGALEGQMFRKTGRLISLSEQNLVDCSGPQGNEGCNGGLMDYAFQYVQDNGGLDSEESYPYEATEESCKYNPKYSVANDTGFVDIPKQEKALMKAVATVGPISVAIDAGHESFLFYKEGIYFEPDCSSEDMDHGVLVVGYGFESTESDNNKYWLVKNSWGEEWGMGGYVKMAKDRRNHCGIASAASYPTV

PANC-1 [5] = assay: Anti-invasive activity in human PANC-1 cells assessed as reduction in cell invasion at 6.25 to 25 uM incubated for 24 hrs by crystal violet staining based transwell migration assay; format: functional; details: dose 6.25-25 µM
BXPC-3 [6] = assay: Anti-invasive activity in human BXPC-3 cells assessed as reduction in cell invasion at 6.25 to 25 uM incubated for 24 hrs by crystal violet staining based transwell migration assay; format: functional; details: dose 6.25-25 µM
PANC-1 [7] = assay: Antiproliferative activity against human PANC-1 cells assessed as reduction of cell viability at <25 uM by MTT assay; format: functional
PANC-1 [8] = assay: Antimetastatic activity in human PANC-1 cells assessed as reduction in cell migration at 6.25 to 25 uM incubated for 48 hrs by wound healing assay; format: functional, cell-based; details: dose 6.25-25 µM
BXPC-3 [9] = assay: Antiproliferative activity against human BxPC-3 cells assessed as effect on cathepsin L mRNA expression level at 6.25 to 25 uM incubated for 48 hrs by RT-PCR analysis; format: functional, cell-based; details: dose 6.25-25 µM
PANC-1 [10] = assay: Antiproliferative activity against human PANC-1 cells assessed as effect on cathepsin L mRNA expression level at 6.25 to 25 uM incubated for 48 hrs by RT-PCR analysis; format: functional, cell-based; details: dose 6.25-25 µM
BXPC-3 [11] = assay: Antiproliferative activity against human BxPC-3 cells assessed as reduction of cell viability at <25 uM by MTT assay; format: functional
BXPC-3 [12] = assay: Antimetastatic activity in human BXPC-3 cells assessed as reduction in cell migration at 6.25 to 25 uM incubated for 48 hrs by wound healing assay; format: functional, cell-based; details: dose 6.25-25 µM
Procathepsin L [13] = target: T2, Procathepsin L; assay: Inhibition of cathepsin L activity in human BXPC-3 cells at 6.25 to 25 uM incubated for 48 hrs by fluorescence-based assay; format: cell-based; details: dose 6.25-25 µM
Target sequence in this assay (P07711 114-333 limits assumed): as above

Cathepsin S [14] = target: T3, Cathepsin S; assay: Inhibition of cathepsin S activity in human BXPC-3 cells at 6.25 to 25 uM incubated for 48 hrs by fluorescence-based assay; format: cell-based; details: dose 6.25-25 µM
Target sequence in this assay (P25774 115-331 limits assumed): as the sequence (P25774 115-331 limits assumed) above

Compound | IC50 (Cathepsin K) [µM] | IC50 (Procathepsin L [1]) [µM] | IC50 (Cathepsin B) [µM] | IC50 (Cathepsin S [2]) [µM] | other results
N#Cc1ccccc1N1CCN(C[C@@H](O)COC[C@H](Cc2ccccc2)NC(=O)C2CCN(C(=O)OCc3ccccc3)CC2)CC1 | > 100 | 19.5 | > 100 | 22.7 | –
COc1ccc(/C=C/C(=O)NC[C@@H](Cc2ccccc2)NS(=O)(=O)c2ccc(Br)cc2)cc1OC | > 100 | > 100 | > 100 | > 100 | –
COc1cccc(/C=C/C(=O)NC[C@@H](Cc2ccccc2)NS(=O)(=O)c2ccc(C(F)(F)F)cc2)c1 | > 100 | 51.7 | > 100 | 64.5 | –
N#Cc1ccccc1N1CCN(C[C@H](O)COC[C@H](Cc2ccccc2)NC(=O)C2CCN(C(=O)OCc3ccccc3)CC2)CC1 | > 100 | 14.5 | > 100 | 11.1 | –
N#Cc1ccccc1N1CCN(C[C@H](O)COC[C@@H](Cc2ccccc2)NS(=O)(=O)c2ccc(C(F)(F)F)cc2)CC1 | > 100 | 40.7 | > 100 | 40.4 | –
N#Cc1ccccc1N1CCN(C[C@@H](O)COC[C@@H](Cc2ccccc2)NC(=O)c2ccncc2)CC1 | > 100 | 29.8 | > 100 | 48.9 | –
N#Cc1ccccc1N1CCN(C[C@@H](O)COC[C@H](Cc2ccccc2)NC(=O)c2ccncc2)CC1 | > 100 | 18.6 | > 100 | 28.8 | –
COc1cccc(/C=C/C(=O)NC[C@@H](Cc2ccccc2)NS(=O)(=O)c2ccc(Br)cc2)c1 | > 100 | 23.9 | > 100 | 41 | –
N#Cc1ccccc1N1CCN(C[C@@H](O)COC[C@@H](Cc2ccccc2)NS(=O)(=O)c2ccc(C(F)(F)F)cc2)CC1 | > 100 | 10.5 | > 100 | 22.3 | –
COc1cccc(/C=C/C(=O)NC[C@H](Cc2ccccc2)NS(=O)(=O)c2ccc(C(F)(F)F)cc2)c1 | > 100 | > 100 | > 100 | > 100 | –
N#Cc1ccccc1N1CCN(C[C@H](O)COC[C@H](Cc2ccccc2)NS(=O)(=O)c2ccc(C(F)(F)F)cc2)CC1 | > 100 | 41.1 | > 100 | 30.7 | –
N#Cc1ccccc1N1CCN(C[C@H](O)COC[C@@H](Cc2ccccc2)NS(=O)(=O)c2ccc(Br)cc2)CC1 | > 100 | 7.5 | > 100 | 4.38 | –
COc1ccc(/C=C/C(=O)NC[C@H](Cc2ccccc2)NS(=O)(=O)c2ccc(Br)cc2)cc1OC | > 100 | > 100 | > 100 | > 100 | –
N#Cc1ccccc1N1CCN(C[C@H](O)COC[C@@H](Cc2ccccc2)NC(=O)C2CCN(C(=O)OCc3ccccc3)CC2)CC1 | > 100 | > 100 | > 100 | > 100 | –
N#Cc1ccccc1N1CCN(C[C@@H](O)COC[C@H](Cc2ccccc2)NS(=O)(=O)c2ccc(C(F)(F)F)cc2)CC1 | > 100 | 45.9 | > 100 | 29.2 | –
N#Cc1ccccc1N1CCN(C[C@H](O)COC[C@H](Cc2ccccc2)NC(=O)c2ccncc2)CC1 | > 100 | 9.37 | > 100 | 16.1 | –

Continued, in another order:

IC50 (Cathepsin K) [µM] | IC50 (Procathepsin L [1]) [µM] | IC50 (Cathepsin B) [µM] | IC50 (Cathepsin S [2]) [µM] | Compound | other results
> 100 | 8.53 | > 100 | 7.72 | N#Cc1ccccc1N1CCN(C[C@H](O)COC[C@H](Cc2ccccc2)NS(=O)(=O)c2ccc(Br)cc2)CC1 | –
> 100 | > 100 | > 100 | > 100 | COc1cccc(/C=C/C(=O)NC[C@H](Cc2ccccc2)NS(=O)(=O)c2ccc(Br)cc2)c1 | –
> 100 | 6.03 | > 100 | 5.02 | O=C(OC[C@@H](Cc1ccccc1)NS(=O)(=O)c1ccc(Br)cc1)[C@@H](Cc1ccccc1)NS(=O)(=O)c1ccccc1 | –
> 100 | > 100 | > 100 | > 100 | COc1ccc(/C=C/C(=O)NC[C@H](Cc2ccccc2)NS(=O)(=O)c2ccc(C(F)(F)F)cc2)cc1OC | –
> 100 | 5.47 | > 100 | 5.46 | N#Cc1ccccc1N1CCN(C[C@@H](O)COC[C@H](Cc2ccccc2)NS(=O)(=O)c2ccc(Br)cc2)CC1 | –
> 100 | 46.2 | > 100 | 23.1 | N#Cc1ccccc1N1CCN(C[C@H](O)COC[C@@H](Cc2ccccc2)NC(=O)c2ccncc2)CC1 | –
> 100 | > 100 | > 100 | > 100 | N#Cc1ccccc1N1CCN(C[C@@H](O)COC[C@@H](Cc2ccccc2)NC(=O)C2CCN(C(=O)OCc3ccccc3)CC2)CC1 | –
> 100 | 4.1 | > 100 | 1.79 | N#Cc1ccccc1N1CCN(C[C@@H](O)COC[C@@H](Cc2ccccc2)NS(=O)(=O)c2ccc(Br)cc2)CC1 | inhibition (Cathepsin S [3]): Dose-Dependent Effect; inhibition (Procathepsin L [4]): Dose-Dependent Effect; Activity (PANC-1 [5]): Dose-Dependent Effect; Activity (BXPC-3 [6]): Dose-Dependent Effect; Activity (PANC-1 [7]): 100%; Activity (PANC-1 [8]): Dose-Dependent Effect; Activity (BXPC-3 [9]): inactive; Activity (PANC-1 [10]): inactive; Activity (BXPC-3 [11]): 100%; Activity (BXPC-3 [12]): Dose-Dependent Effect; inhibition (Procathepsin L [13]): Dose-Dependent Effect; inhibition (Cathepsin S [14]): Dose-Dependent Effect
> 100 | 12.3 | > 100 | 21.2 | COc1ccc(/C=C/C(=O)NC[C@@H](Cc2ccccc2)NS(=O)(=O)c2ccc(C(F)(F)F)cc2)cc1OC | –
